The NIST ThermoML archive (doi:10.1021/je200811n)

Conditions: Hot wire method

C=C(F)C(F)(F)F [2,3,3,3-tetrafluoro-1-propene]
Conditions | thermal conductivity [W/m/K]
303.53 K, 5728 kPa, Liquid | 0.06591
303.55 K, 638 kPa, Gas | 0.01428
303.58 K, 863 kPa, Liquid | 0.06214
303.62 K, 95 kPa, Gas | 0.01418
303.69 K, 16013 kPa, Liquid | 0.0724
303.7 K, 10745 kPa, Liquid | 0.06899
303.7 K, 20552 kPa, Liquid | 0.07462
303.71 K, 509 kPa, Gas | 0.0142
303.73 K, 5727 kPa, Liquid | 0.06571
303.76 K, 199 kPa, Gas | 0.01415
303.8 K, 863 kPa, Liquid | 0.06166
303.93 K, 349 kPa, Gas | 0.01413
304.07 K, 95 kPa, Gas | 0.01428
304.07 K, 16014 kPa, Liquid | 0.07249
304.07 K, 20551 kPa, Liquid | 0.07457
304.1 K, 10744 kPa, Liquid | 0.06936
304.15 K, 5727 kPa, Liquid | 0.06587
304.2 K, 199 kPa, Gas | 0.0142
304.24 K, 861 kPa, Liquid | 0.06192
304.28 K, 20546 kPa, Liquid | 0.07468
304.3 K, 16011 kPa, Liquid | 0.07229
304.33 K, 10741 kPa, Liquid | 0.069
304.39 K, 5724 kPa, Liquid | 0.06553
304.5 K, 861 kPa, Liquid | 0.06141
304.55 K, 95 kPa, Gas | 0.01429
311.19 K, 200 kPa, Gas | 0.01522
311.21 K, 97 kPa, Gas | 0.01495
311.39 K, 298 kPa, Gas | 0.01522
311.41 K, 200 kPa, Gas | 0.01508
311.44 K, 97 kPa, Gas | 0.01475
311.61 K, 298 kPa, Gas | 0.01516
311.64 K, 200 kPa, Gas | 0.01494
311.67 K, 98 kPa, Gas | 0.01469
311.84 K, 298 kPa, Gas | 0.01507
311.87 K, 877 kPa, Gas | 0.01518
311.89 K, 200 kPa, Gas | 0.01484
311.92 K, 97 kPa, Gas | 0.01463
311.99 K, 676 kPa, Gas | 0.01501
312.01 K, 610 kPa, Gas | 0.01499
312.09 K, 298 kPa, Gas | 0.01504
312.14 K, 200 kPa, Gas | 0.01477
312.15 K, 876 kPa, Gas | 0.01537
312.16 K, 409 kPa, Gas | 0.0149
312.18 K, 97 kPa, Gas | 0.01458
312.25 K, 298 kPa, Gas | 0.01491
312.3 K, 675 kPa, Gas | 0.01513
312.31 K, 610 kPa, Gas | 0.01511
312.36 K, 200 kPa, Gas | 0.01491
312.46 K, 875 kPa, Gas | 0.01532
312.49 K, 408 kPa, Gas | 0.01491
312.57 K, 97 kPa, Gas | 0.01511
312.58 K, 298 kPa, Gas | 0.01491
312.62 K, 673 kPa, Gas | 0.01513
312.66 K, 608 kPa, Gas | 0.01506
312.72 K, 200 kPa, Gas | 0.01494
312.8 K, 873 kPa, Gas | 0.01537
312.85 K, 408 kPa, Gas | 0.01492
312.96 K, 298 kPa, Gas | 0.01498
312.97 K, 97 kPa, Gas | 0.01513
312.97 K, 673 kPa, Gas | 0.01511
313.01 K, 607 kPa, Gas | 0.01512
313.11 K, 200 kPa, Gas | 0.01497
313.15 K, 872 kPa, Gas | 0.01537
313.23 K, 408 kPa, Gas | 0.01499
313.34 K, 672 kPa, Gas | 0.01515
313.36 K, 298 kPa, Gas | 0.01497
313.38 K, 608 kPa, Gas | 0.01508
313.39 K, 98 kPa, Gas | 0.01515
313.53 K, 200 kPa, Gas | 0.015
313.62 K, 409 kPa, Gas | 0.01501
313.78 K, 298 kPa, Gas | 0.01501
313.83 K, 97 kPa, Gas | 0.01516
313.96 K, 201 kPa, Gas | 0.01503
314.3 K, 97 kPa, Gas | 0.01518
321.31 K, 103 kPa, Gas | 0.01573
321.31 K, 200 kPa, Gas | 0.01591
321.31 K, 302 kPa, Gas | 0.01608
321.46 K, 1449 kPa, Liquid | 0.05663
321.54 K, 103 kPa, Gas | 0.01562
321.54 K, 200 kPa, Gas | 0.01577
321.54 K, 302 kPa, Gas | 0.01588
321.56 K, 1449 kPa, Liquid | 0.05669
321.75 K, 1115 kPa, Gas | 0.0164
321.76 K, 302 kPa, Gas | 0.01587
321.78 K, 103 kPa, Gas | 0.01553
321.79 K, 200 kPa, Gas | 0.01566
321.82 K, 1447 kPa, Liquid | 0.05704
321.95 K, 1449 kPa, Liquid | 0.05672
321.97 K, 6367 kPa, Liquid | 0.06142
322.01 K, 302 kPa, Gas | 0.01579
322.01 K, 11135 kPa, Liquid | 0.06547
322.03 K, 200 kPa, Gas | 0.0156
322.04 K, 103 kPa, Gas | 0.01545
322.04 K, 1115 kPa, Gas | 0.01641
322.11 K, 1199 kPa, Gas | 0.01674
322.14 K, 959 kPa, Gas | 0.01623
322.15 K, 16399 kPa, Liquid | 0.06904
322.18 K, 862 kPa, Gas | 0.0161
322.22 K, 1450 kPa, Liquid | 0.05677

Conditions | thermal conductivity [W/m/K]
313.15 K, Liquid | 0.05899
